Test system: Staphylococcus aureus ATCC 6538
Assay: Antibacterial test on treated fabric (AATCC 147:2011; washing standard BS EN ISO 6330 5A)
Assay type: cell-based
Parameters: key to Bacteria Growth: (—): no bacterial colonies directly under the treated sample in the contact area were observed
Settings: 37° C. ± 2° C., 18-24 hrs, no washing; for Bacteria Growth: directly under the treated fabric sample in the contact area; for Inhibition Zone (width of clear zone of inhibition): woven fabric treated with the compound, sample 25 × 50 mm
Experimental: In order to determine if the antimicrobic activity of the textile fabrics, Washing Standart: BS EN ISO 6330 5A and Antibacterial Test Standart: AATCC 147:2011 were followed. Details of the method are given in the experimental section of the description.
• Antibacterial tests were carried out using Washing Standart: BS EN ISO 6330 5A, and Antibacterial Test Standart: AATCC 147:2011.

Row | Structure (SMILES) | Bacteria Growth | Inhibition Zone (width of clear zone of inhibition) [mm]
1 | Cc1cc(/N=C/c2cccc3ccccc23)on1 [Example 1, 3-methyl-N-(1-naphthalenylmethylen)-5-isoxazolamine] | (—) | 0
2 | Cc1cc(/N=C/c2ccc3ccccc3c2)on1 [Example 2, 3-methyl-N-(2-naphthalenylmethylen)-5-isoxazolamine] | (—) | 0
3 | Cc1cc(/N=C/c2cc3ccccc3c3ccccc23)on1 [Example 3, 3-methyl-N-(9-phenanthrenylmethylen)-5-isoxazolamine] | (—) | 0

From patent US20170101385A1, “NOVEL ISOXAZOLES, A PROCESS FOR THEIR PREPARATION AND USES THEREOF” (Sanko Tekstil Isletmeleri San. Ve Tic. A.S., priority 2015, published 2017)
